The record followed here is ChEMBL document CHEMBL1132617, “Diversity analysis of 14 156 molecules tested by the National Cancer Institute for anti-HIV activity using the quantitative structure-activity relational expert system MCASE” (J Med Chem, 1999).

Each structure is given as a SMILES string. Calls of active or inactive are those of the source. No cut-off for these calls is given here.

The first assay has as its target Human immunodeficiency virus type 1 reverse transcriptase (Human immunodeficiency virus 1) (UniProt Q72547). Description: Antiviral activity as inhibition of HIV reverse transcriptase; Active.
Consider `CCN1c2ccccc2C2NC=C(C)C2c2ccc(OC)cc21` (centres undefined), for which the outcome was Active.

Consider `CCOCN1C(=O)NC(=O)C(C)C1Sc1ccccc1` (centres undefined), for which the outcome was Active.

Another assay has as its target Human immunodeficiency virus type 1 protease (Human immunodeficiency virus 1) (UniProt Q72874). Description: Antiviral activity as inhibition of HIV protease; Active.
Turning to `O=C1C2=C(C(=O)c3ccccc31)C(O)(S(=O)(=O)O)C(O)(S(=O)(=O)O)C1N=CC=CC21` (centres undefined), the outcome was Active.

For the compound `CCCCCCc1cc2c(cc1O)CC(=O)C(C(c1ccccc1)C1COc3cc(O)c(CCCCCC)c(O)c3C1)=C2O` (centres undefined), the outcome was Active.

A further assay concerns the target Human immunodeficiency virus type 1 reverse transcriptase (Human immunodeficiency virus 1) (UniProt Q72547). Description: Antiviral activity as inhibition of HIV reverse transcriptase; Inactive.
`CC1C(=O)NC(=O)N(COCCO)C1Sc1cccc(O)c1` (centres undefined): the outcome was inactive.

For the next assay, the system named is Human immunodeficiency virus 1. Description: HIV antiviral activity. It is filed as functional.
For `C=C/C(=C\C)NC(C)=O`, the Average activity amounted to 60.

The compound `CCC(F)CC` yielded an Average activity of 56.

In turn, `C=CC(=C\C)/N=C(\C)S` showed an Average activity of 60.

In turn, `C=C/C=C\C=C\[PH](=O)/C=C/C` (centres undefined) displayed an Average activity of 51.

Turning to `C=C/C(=C\C)C(=O)N/C(C)=C/C`, the Average activity is 37.

Compound `CCC(I)CC` returned an Average activity of 56.

With `CCC1OC1C` (centres undefined), the Average activity was found to be 56.

`C=C/C=C\C=C\[S+]([O-])/C=C/C` (centres undefined) returned an Average activity of 51.

Compound `C=C/C=C\C=C\C(=O)/C=C/C` came in with an Average activity of 51.

As for `C=C/C=C/C=C/S(=O)(=O)/C=C/C`, the Average activity was found to be 51.

Compound `CCC(Cl)CC` showed an Average activity of 56.

Compound `CC(=O)NC(=O)N(C)C1CCC(N=[N+]=[N-])O1` (centres undefined) came in with an Average activity of 64.

The target of the next assay is Human immunodeficiency virus type 1 protease (Human immunodeficiency virus 1) (UniProt Q72874). Description: Antiviral activity as inhibition of HIV protease; Inactive.
With `O=C(O)C1Cc2cc3c(cc2C(O)C1CO)OCO3` (centres undefined), the outcome was inactive.

Another assay deals with Human immunodeficiency virus type 1 integrase (Human immunodeficiency virus 1) (UniProt Q7ZJM1). Description: Antiviral activity as inhibition of HIV integrase; Inactive.
Chain of Human immunodeficiency virus type 1 integrase (Human immunodeficiency virus 1) (Q7ZJM1 as listed by the source): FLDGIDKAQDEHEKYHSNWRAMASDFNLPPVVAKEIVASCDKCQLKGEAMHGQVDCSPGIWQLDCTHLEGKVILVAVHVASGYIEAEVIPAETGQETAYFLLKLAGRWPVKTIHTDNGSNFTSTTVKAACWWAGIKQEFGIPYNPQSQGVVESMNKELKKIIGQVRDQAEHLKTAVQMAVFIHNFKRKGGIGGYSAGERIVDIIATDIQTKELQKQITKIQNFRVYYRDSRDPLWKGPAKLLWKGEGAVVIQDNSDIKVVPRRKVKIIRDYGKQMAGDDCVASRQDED
With `O=c1c(O)c(-c2ccc(O)cc2)oc2cc(O)cc(O)c12`, the outcome was inactive.
